Data published in patent US12377106B2, “Piperidinylpyrazine-carboxamide compounds for treating and preventing cancer and for degrading BTK” (NURIX THERAPEUTICS, INC., priority 2021, dated 2025).
“Also recorded” adds a separate entry of the source.

Columns and labels:
[1] = test system: BTK; test: Flow cytometry assay for BTK degradation in patient circulating B cells (CD19+CD3-), Phase 1a/1b trial; assay type: in vivo, human
Method: Compound 149 was administered to human patients in a Phase 1a/lb trial investigating safety and tolerability in relapsed and refractory B cell malignancies. Compound 149 was administered as a once daily oral dose first in an accelerated Phase 1a dose escalation starting at 100 mg on Day 1. The first dose levels are explored in a single patient cohort until a grade 2 adverse event has been observed. Thereafter, a traditional 3+3 escalation design is used. This 100 mg starting dose was predicted to provide similar exposure as that observed in non-human primate studies. Once a dose is selected based on all safety, efficacy, pharmacokinetic, and pharmacodynamic data available, the trial will expand in up to five expansion cohorts.
[…] of Bruton's tyrosine kinase were measured by flow cytometry in circulating B cells, including disease cells and provided in FIG. 2. This mean fluorescence intensity directly correlates with the levels of BTK protein observed in a Western blot. […] The patient's BTK levels start at different levels yet, the treatment results in the same level of degradation by Day 15, which is the first measurement after steady state concentration is achieved.
The 100 mg patient achieved greater than 80% BTK degradation at steady state. All patients at the 200 mg dose level achieved greater than 90% degradation at steady state.
The data is summarized in Table 3 below which provides the average percent BTK degradation during the last 2 weeks of the first cycle (namely Days 15, 22, and 29). In Cohort 2 (200 mg), well above 90% of BTK degradation was achieved during the steady state.
Following informed consent, peripheral blood was obtained from all patients for baseline and post Compound 149 therapy assessment of BTK and Ikaros degradation. Patient blood (5 mL) was drawn and immediately fixed in a 5 mL CytoChex™ BCT tube and stored at ambient temperature until assessment via flow cytometry. Blood samples were analyzed within 3 days post sample collection at Precision for Medicine. Additional blood was also drawn into 8 mL BD Vacutainer® CPT™ Cell Preparation Tube with Sodium Citrate. Peripheral blood mononuclear cells (PBMCs) were processed, and viability frozen according to manufacturer's protocol.
For flow staining, 1 mL blood was treated with 1×BD PharmLyse to facilitate red blood cell lysing. Remaining leukocytes were washed with staining buffer (SB) containing Dulbecco's Phosphate Buffered Saline (DPBS) without Calcium or Magnesium, 1% bovine serum albumin (BSA), 10 mM HEPES, 1 mM EDTA, and 0.01% sodium azide. Cell pellet was stained with fluorophore-conjugated cell surface markers antibodies against CD45, CD3, CD4, CD8, CD14, CD16, CD19 and CD56 prepared in BD Brilliant Stain buffer for 25 minutes at room temperature.
Following cell surface staining, cells were washed twice with SB and then fixed and permeabilized for one hour at room temperature with eBioscience FoxP3/Transcription Factor Staining Buffer set according to the manufacturer's instructions. Washed cells were then stained with unconjugated BTK antibody made in 1× Permeabilization buffer) for 30 minutes. This was followed by another 30-minute incubation with anti-rabbit Alexa488 secondary antibody also prepared in 1× Permeabilization buffer for BTK detection. After incubation, the cells were washed twice with 1× Permeabilization Buffer and then resuspended in SB. Control samples containing fluorescence minus two markers (FM2) were used for background controls and were stained for all surface markers in the panel excluding BTK.
The samples were transferred to BD TruCount tubes before acquisition on a BD LSR Fortessa using predetermined BD FACS Diva software (v8.0) application settings. Data analysis was performed using FlowJo software (v10).
Single lymphocytes were gated for B cells (CD19+CD3−), and the geometric mean fluorescence intensity (MFI) of BTK was calculated. The MFI of B cells in FM2 control was used to quantify background staining. […]

[2] = test system: lymphoma cells harboring BTK-C481S mutation; test: Killing of lymphoma cells harboring BTK-C481S mutation (FIG. 6); assay type: cell-based
[3] = test system: novel BTK mutations emerging post BTKi-treatment; test: Degradation of novel BTK mutations emerging post BTKi-treatment (FIG. 6); assay type: cell-based; details: multiple novel BTK mutations emerging post BTKi-treatment
[4] = average of patients 1, 2, 3, 4, 6 (100 mg and 200 mg)
[5] = average of patients with data (100 mg and 200 mg)
[6] = patient 1 (CLL), 100 mg once daily oral
[7] = patient 2 (CLL), 200 mg once daily oral
[8] = patient 3 (MCL), 200 mg once daily oral
[9] = patient 4 (WM), 200 mg once daily oral
[10] = patient 6 (SLL), 200 mg once daily oral

Compound: NC(=O)c1ncc(N2CCCCC2)nc1Nc1ccc(C2CCN(C[C@@H]3CCN(c4ccc5c(c4)C(=O)N(C4CCC(=O)NC4=O)C5=O)C3)CC2)cc1 (stereo partly shown) [Compound 149]
- day on which maximum BTK degradation was achieved ([1]; DLBCL patient, 300 mg, BTK MFI in CD19+ B cells, FIG. 8): 8 days
- duration of BTK degradation ([1]; DLBCL patient, 300 mg, FIG. 8): sustained through day 29
- duration of BTK degradation ([1]; after steady state Cycle 1 Day 15, prior to starting Cycle 2): sustained through Cycle 1 Day 29
- level of BTK protein in circulating B cells (BTK MFI) ([1]; all patients treated, once daily oral regimen): dramatically decreases the level of BTK protein in all patients treated; also recorded: time-dependent decrease of BTK levels
- % BTK Degraded, Day 2, Average [1, 4]: 56.5%
- % BTK Degraded, Day 8, Average [1, 4]: 80.4%
- % BTK Degraded, Day 22, Average [1, 5]: 92.1%
- % BTK Degraded, Day 29, Average [1, 5]: 90.1%
- % BTK Degraded, Day 15, Average ([1]; average of patients with data (100 mg and 200 mg), steady state Cycle 1 Day 15): 90.1%
- BTK Degradation, Day 2 [1, 6]: 62.8%
- BTK Degradation, Day 8 [1, 6]: 76.9%
- BTK Degradation, Day 15 [1, 6]: 78.0%
- BTK Degradation, Day 22 [1, 6]: 85.5%
- BTK Degradation, Day 29 [1, 6]: 82.0%
- BTK Degradation, Day 56 [1, 6]: 81.4%
- BTK Degradation, Avg. Steady State ([1]; patient 1 (CLL), 100 mg once daily oral, average of Days 15, 22 and 29): 81.8%
- BTK Degradation, Day 2 [1, 7]: 75.1%
- BTK Degradation, Day 8 [1, 7]: 90.5%
- BTK Degradation, Day 15 [1, 7]: 96.1%
- BTK Degradation, Day 22 [1, 7]: 95.4%
- BTK Degradation, Day 29 [1, 7]: 96.1%
- BTK Degradation, Day 56 [1, 7]: 96.0%
- BTK Degradation, Avg. Steady State ([1]; patient 2 (CLL), 200 mg once daily oral, average of Days 15, 22 and 29): 95.9%
- BTK Degradation, Day 2 [1, 8]: 74.0%
- BTK Degradation, Day 8 [1, 8]: 92.7%
- BTK Degradation, Day 15 [1, 8]: 94.6%
- BTK Degradation, Day 22 [1, 8]: 95.4%
- BTK Degradation, Day 29 [1, 8]: 92.3%
- BTK Degradation, Day 56 [1, 8]: 94.7%
- BTK Degradation, Avg. Steady State ([1]; patient 3 (MCL), 200 mg once daily oral, average of Days 15, 22 and 29): 94.1%
- BTK Degradation, Day 2 [1, 9]: 63.6%
- BTK Degradation, Day 8 [1, 9]: 56.8%
- BTK Degradation, Day 15 [1, 9]: 91.5%
- BTK Degradation, Avg. Steady State ([1]; patient 4 (WM), 200 mg once daily oral, only Day 15 available): 91.5%
- BTK Degradation, Day 2 [1, 10]: 6.9%
- BTK Degradation, Day 8 [1, 10]: 85.1%
- BTK degradation at 24 hours after the initial dose ([1]; patients 1, 2, 3 and 4, 100 mg or 200 mg): 62.8-75.1%
- BTK degradation at steady state ([1]; the 100 mg patient): greater than 80%
- killing of lymphoma cells [2]: kills lymphoma cells harboring BTK-C481S mutation
- degradation of mutant BTK [3]: degrades multiple novel BTK mutations emerging post BTKi-treatment
